Test results taken from US20100150938A1, “METHODS AND COMPOSITIONS FOR REDUCING INFLAMMATION AND TREATING INFLAMMATORY DISORDERS” (UNIVERSITY OF MASSACHUSETTS, priority 2008, published 2010).

Legend:
caspase-1 [1] = assay: Caspase-1 activation in microglia (FLICA, confocal microscopy, flow cytometry); assay type: cell-based, mouse; settings: immortalized microglia, Aβ 10 μM, revAβ 10 μM, ATP 1 mM, 4 h
Procedure: (§1) For assessment of microglia-induced neurotoxicity, CAD mouse neuronal cells^47 were seeded on poly-L-lysine coated glass cover slips and grown in F12/DMEM supplemented with ciprofloxacin (Cellgro, Manassas, Va.) and 10% fetal calf serum (Hyclone, Logan, Utah) for 24 h. Differentiation was induced by withdrawal of serum for 48 h Immortalized microglia from wildtype or caspase-1^−/− mice were added in serum free medium to obtain mixed neuronal/microglial cultures and immediately stimulated. 72 h after stimulation with Aβ or media, cells were fixed, stained for the neuron-specific marker TuJ-1 and microglial marker CD11b, and imaged by confocal microscopy (Leica SP2 AOBS). Caspase-1 activity in microglial cells was assessed using the caspase-1 FLICA™ kit (Immunochemistry Technologies, Bloomington, Minn.) according to the manufacturer's instructions.
For evaluation of lysosomal damage, cells were incubated with LysoTracker green (1:2000) for 30 min and stimulated as described. Lysosomal damage was defined as loss of LysoTracker fluorescence as assessed by flow cytometry. All flow cytometry experiments were performed on an LSRII cytometer (BD Biosciences), data were acquired by DIVA software (BD Biosciences) and analyzed with FlowJo software (Tree Star Inc., Ashland, Oreg.).
IL-1β maturation is controlled by caspase-1 after assembly of the inflammasome, a multi protein complex that activates pro-caspase-1. In order to test whether Aβ activates caspase-1, we measured levels of activated caspase-1 using a fluorescent cell permeable probe (FAM-YVAD-Fmk), which covalently binds only to activated caspase-1 (Fluorescent labeled Inhibitors of Caspases, FLICA)^14. […] Similar results were obtained in primary microglial cultures (FIG. 15c).

caspase-1 [2] = assay: Caspase-1 cleavage/activation in mouse macrophages (Western blot p10); assay type: cell-based; settings: LPS-primed wild type bone marrow-derived macrophages, Aβ and reverse Aβ 10 μM
Procedure: Bone marrow derived macrophages were generated as described (Severa, M et al. Journal of Biological Chemistry 281:26188-26195 (2006)). Human PBMCs were isolated by from whole blood of healthy volunteers by density gradient centrifugation. Lysis of red blood cells was performed using red blood cell lysis buffer (Sigma). Experiments in PBMCs and macrophages were carried out at a cell density of 2×10^6 cells/ml. All primary cells and cell lines except THP-1 cells were cultured in DMEM supplemented with L-glutamine, ciprofloxacin (Cellgro, Manassas, Va.) and 10% fetal calf serum (Hyclone, Logan, Utah). THP-1 cells were cultured in RPMI supplemented with 10% fetal calf serum (Hyclone), L-glutamine, sodium pyruvate (Cellgro), and ciprofloxacin. One day prior to stimulation, THP-1 cells were differentiated using 0.5 μM PMA for three hours, washed three times and plated for stimulation. All experiments that were performed for Western blot analysis were carried out in serum free DMEM medium. ATP stimulations were carried out at 5 mM one hour prior to harvesting supernatants.
Cell culture supernatants were precipitated by adding an equal volume of methanol and 0.25 volumes of chloroform, vortexed and centrifuged at 20.000×g for 10 min. The upper phase was discarded and 500 μl of methanol was added to the interphase. This mixture was centrifuged at 20.000×g for 10 min and the protein pellet dried at 55° C., resuspended in Laemmli buffer and boiled at 99° C. for 5 min. Samples were separated by SDS-PAGE (15%) and transferred onto nitrocellulose membranes. As indicated, blots were incubated with rabbit polyclonal antibody to anti murine caspase-1 p10 (sc-514, Santa Cruz Biotechnology, Santa Cruz, Calif.), rabbit polyclonal anti human caspase-1 p10 (sc-515, Santa Cruz Biotechnology), rabbit polyclonal anti human cleaved IL-1β (Asp116) (Cell Signaling, Boston, Mass.) or rabbit polyclonal anti murine cathepsin B (R&D Systems, Minneapolis, Minn.).
Cell culture supernatants were precipitated by adding an equal volume of methanol and 0.25 volumes of chloroform, vortexed and centrifuged at 20,000×g for 10 min. The upper phase was discarded and 500 μl of methanol was added to the interphase. This mixture was centrifuged at 20,000×g for 10 min and the protein pellet dried at 55° C., resuspended in Laemmli buffer and boiled at 99° C. for 5 min Samples were separated by SDS-PAGE (15%) and transferred onto nitrocellulose membranes. Blots were incubated with rabbit polyclonal antibody to anti murine caspase-1 p10 (sc-514, Santa Cruz Biotechnology, Santa Cruz, Calif.).

CAD mouse neuronal cells = assay: Neurotoxicity assay, CAD mouse neuronal cells with or without microglia; assay type: cell-based
Procedure: as §1

ASC = assay: ASC-CFP microglia cell line, ASC clustering; assay type: cell-based, mouse; settings: LPS-primed ASC-CFP microglia, 3 h after stimulation
Excerpt: Human ASC was fused to CFP using BgIII/BamHI in pEF-BOS-CFP. Subsequently, ASC-CFP was cloned using XhoI and NotI into a modified form of FUGW (FUGW-XN). FUGW-XN was modified by replacing GFP with a novel cut site that created XhoI and NotI compatible ends upon Esp3I digestion.
Lentivirus was produced in 293T cells transfected with the FUGW based expression vector coding for ASC-CFP, lentiviral packaging plasmid containing gag, pol and rev genes (pCMV-dR8.91) and envelope plasmid (VSV-G) using TransIT-LT1 transfection reagent (Minis Bio, MIR 2300/5/6) as previously described^46. One day after transfection, medium was replaced and after one additional day of culture supernatants containing the lentivirus was removed, filtered and used to infect immortalized microglia cells.
For experiments, ASC-CFP microglial cells were seeded in duplicate into confocal dishes, stimulated as indicated. A647-labeled cholera toxin subunit B (1:1000) was added to stain cellular membranes. Cells were subsequently imaged using confocal microscopy (Leica SP2 AOBS). Cells were fixed and 5 random fields were imaged in duplicate for quantification.
First, we stably transduced microglial cell cultures with a fusion protein of ASC and cyan fluorescent protein (CFP). ASC forms large oligomers upon its activation, leading to visible changes in the cytoplasmic fluorescence pattern of ASC-CFP. […]

[3] = tested on: CCL-3/MIP1 a, CCL4/MIP1β and CXCL2/MIP2; assay: Chemokine mRNA in microglia (QRT-PCR); assay type: cell-based, mouse; settings: wild type microglial cells, Aβ 10 μM, 6 and 24 h
Procedure: Immortalized murine microglia were seeded in 6 well tissue culture plates, incubated in the absence or presence of 10 μM Aβ, washed with PBS and lysed in 1 mL TRIZOL reagent (Invitrogen). RNA was purified by organic extraction. 5 μg of RNA from each sample was reverse transcribed using multiscribe reverse transcriptase (Applied Biosystems). Oligonucleotide primers were designed using the Primer3 Input PCR primer design program (version 0.4.0.) and QRT-PCR experiments were performed using an iQ Real-Time PCR Detection System (Bio-Rad) and Optical System Software (Version 2.0, Bio-Rad). Relative quantification of mRNA expression was calculated by the comparative cycle method as described by the manufacturer.

Substance: Aβ 1-42 peptide
- caspase-1 positive microglial cells after stimulation (caspase-1 [1]): robust increase
- caspase-1 cleavage (p10) induced by the stimulus (caspase-1 [2]): induced caspase-1 cleavage (p10)
- neuronal cell death (CAD mouse neuronal cells; mixed neuronal/microglial cultures with wild type microglia, Aβ 10 μM, 72 h): widespread neuronal cell death
- effects on neuronal cells (CAD mouse neuronal cells; neuronal mono-culture): only minimal morphological and quantitative effects
- formation of fluorescent ASC-CFP clusters (ASC): brightly fluorescent clusters of ASC-CFP formed
- gene expression of chemokines CCL-3/MIP1 a, CCL4/MIP1β and CXCL2/MIP2 [3]: time-dependently upregulated
